“Also recorded” adds a separate entry of the source.
Experiments:
Assay type in all cases: in vivo
[1] = molecular target: T1, CGRP receptor (Mus musculus, UniProt Q9R1W5+Q9WTJ5); assay: Lung wet-to-dry ratio (pulmonary edema) after intranasal BIBN-4096 in NEHI mouse model; settings: Nkx2-1^L/L mutants; intranasal 10 ul of 0.3 mg/ml at P10, P12, P14, P16, P18; analyzed at P22; vs vehicle DMSO
T1 construct: from tissue; host or cells: Live mouse pups on a B6 background (Nkx2-1 R191L NEHI model and control genotypes); lung, intranasal dosing
Method: Each lung was removed from sacrificed mouse right after euthanasia. Excessive blood was removed by kimwipe and wet weight mw was measured right after dissection. The lung was then placed on the foil at 70° C. for 24 hours. Dry weight […] was then measured by reweighing the dried lung. Wet-to-dry ratio was calculated as: W/D ratio=mw/md.
(§1) BIBN-4096 (Fisher Scientific #45-611-0) was dissolved in 100% DMSO (Sigma-Aldrich D2650) and further diluted to working solution with saline before use. 10 ul of 0.3 mg/ml BIBN-4096 was intranasally administrated to pups at P10, P12, P14, P16 and P18.

[2] = molecular target: T1, CGRP receptor; assay: Body size / weight gain after intranasal BIBN-4096 in NEHI mouse model; settings: analyzed at P22
Method: as §1

[3] = molecular target: T1, CGRP receptor; assay: Oxygen saturation (SpO2) by pulse-ox after intranasal BIBN-4096 in NEHI mouse model; settings: Nkx2-1^L/L mutants; intranasal 10 ul of 0.3 mg/ml at P10-P18; analyzed at P22; vs vehicle DMSO
Method: Pups were shaved and […] by isoflurane while pulse-ox (MouseOxPlus, Starr Life Sciences) was performing. The SpO2 reads were recorded after 5 minutes of stable measurement.
as §1

T1 sequence (Q9R1W5 23-463): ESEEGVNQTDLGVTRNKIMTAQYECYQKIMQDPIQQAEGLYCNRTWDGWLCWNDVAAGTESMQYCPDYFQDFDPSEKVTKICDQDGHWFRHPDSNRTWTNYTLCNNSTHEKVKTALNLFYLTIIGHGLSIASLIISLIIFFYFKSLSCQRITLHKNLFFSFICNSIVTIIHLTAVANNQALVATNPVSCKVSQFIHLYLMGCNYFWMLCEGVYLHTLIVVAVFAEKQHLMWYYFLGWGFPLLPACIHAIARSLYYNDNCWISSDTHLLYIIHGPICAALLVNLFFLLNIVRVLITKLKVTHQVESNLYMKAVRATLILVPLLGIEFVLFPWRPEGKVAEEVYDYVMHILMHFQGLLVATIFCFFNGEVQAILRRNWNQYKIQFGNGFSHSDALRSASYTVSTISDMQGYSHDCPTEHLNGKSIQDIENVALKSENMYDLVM
T1 sequence (Q9WTJ5 27-148): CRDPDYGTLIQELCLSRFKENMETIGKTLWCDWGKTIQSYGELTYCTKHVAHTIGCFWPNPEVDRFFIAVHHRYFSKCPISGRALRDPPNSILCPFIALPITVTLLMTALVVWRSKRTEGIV

**Q.** Which results are given for `NCCCC[C@H](NC(=O)[C@@H](Cc1cc(Br)c(O)c(Br)c1)NC(=O)N1CCC(N2Cc3ccccc3NC2=O)CC1)C(=O)N1CCN(c2ccncc2)CC1` [BIBN-4096, N-((1R)-2-(((1S)-5-amino-1-((4-(pyridin-4-yl)piperazin-1-yl)carbonyl)pentyl)amino)-1-(3,5-dibromo-4-hydroxybenzyl)-2-oxoethyl)-4-(2-oxo-1,4-dihydroquinazolin-3 (2H)-yl) piperidine-1-carboxamide]?
**A.** Lung wet-to-dry ratio (pulmonary edema) [1]: clear reversal; also recorded: attenuation of fluid in lung; Body size / weight gain ([2]; Nkx2-1^L/L mutants, intranasal 10 ul of 0.3 mg/ml at P10-P18, vs vehicle DMSO): clear reversal; also recorded: improved size; Effects of treatment in control genotype groups ([2]; control genotype groups, intranasal P10-P18, vs vehicle DMSO (FIG. 9B)): did not lead to detectable effects; Oxygen saturation measured by pulse-ox (gas-exchange) [3]: clear reversal; also recorded: improved gas-exchange efficiency

— patent publication US12521389B2, “Therapeutic approach to lung disease” (The Regents of the University of California, priority 2019, dated 2026)
